The source of these data is article PMC11651181, “Discovery of 6α-Thiazolylcarboxamidonaltrexamine Derivative (NTZ) as a Potent and Central Nervous System Penetrant Opioid Receptor Modulator with Drug-like Properties for Potential Treatment of Opioid Use Disorder” (ACS Pharmacology & Translational Science, 2024).

Structures are written as SMILES. Where a name gives a salt, the structure may show the parent alone.

The target of one experiment is T1, μ opioid receptor (MOR) (Mus musculus, UniProt P42866).
T1 construct: expressed in transfected cells; host or cells: CHO (mMOR-CHO), membrane preparation
Nature of the experiment: Competitive radioligand binding assay, MOR. The procedure:
(§1) The competition binding assay was performed using monoclonal mouse opioid receptors expressed in CHO cell lines (monoclonal human δ opioid receptor was used for the DOR assay).
(§2) The bound radioligand was separated using a Brandel harvester. Specific binding to the MOR, KOR, and DOR was calculated by subtracting the binding observed in the presence of 5 μM naltrexone, U50488, and SNC80, respectively, from the binding in their absence. Relative affinity values (IC50) were determined by fitting displacement binding inhibition data to a nonlinear regression model using GraphPad Prism 8.0 (GraphPad Software, San Diego, CA). The % inhibition was calculated using the formula: % inhibition = 100% - [(binding with the tested compound - nonspecific binding)/specific binding] × 100%. The IC50 values were converted to Ki values using the Cheng-Prusoff equation: Ki = IC50/ [1 + ([L*]/KD)], where [L*] is the concentration of the radioligand and KD is the KD of the radioligand.[68]

Another experiment concerns the target T2, δ opioid receptor (DOR) (Homo sapiens, UniProt P41143).
T2 construct: expressed in transfected cells; host or cells: CHO (hDOR-CHO), membrane preparation
Nature of the experiment: Competitive radioligand binding assay, DOR. As to conditions: for Selectivity δ/μ: ratio of Ki values. The procedure: as §1, §2

The target in a further experiment is T3, κ opioid receptor (KOR) (Mus musculus, UniProt P33534).
T3 construct: expressed in transfected cells; host or cells: CHO (mKOR-CHO), membrane preparation
Nature of the experiment: Competitive radioligand binding assay, KOR. As to conditions: for Selectivity κ/μ: ratio of Ki values. The procedure: as §1, §2

Another experiment addresses T4, MOR (Mus musculus, UniProt P42866).
T4 construct: expressed in transfected cells; host or cells: CHO (MOR-CHO), membrane preparation
Nature of the experiment: MOR [35S]GTPγS functional assay. In kind it is biochemical. As to conditions: for Emax: read-out: MOR [35S]GTPγS Binding %Emax of DAMGO, relative to 3 μM DAMGO, mean ± SEM. The procedure: The [^35S]GTPγS functional assay was used to assess the efficacy of compounds at the MOR, KOR, and DOR. In this assay, 10 μg of MOR-CHO/KOR-CHO/DOR-CHO membrane protein was incubated in 500 μL of TME with 100 mM NaCl, 20 μM GDP, 0.1 nM [^35S]GTPγS, and varying concentrations of the compound for 1.5 h in a 30 °C water bath. Protein concentration was adjusted using the Bradford protein assay. […] After incubation, bound radioactivity was separated by filtration through GF/B glass fiber filters and measured by liquid scintillation counting. All assays were performed in duplicate and repeated at least three times. Net stimulated [35S]GTPγS binding was calculated as agonist-stimulated minus basal binding.
Background: Binding of GTPγS marks nucleotide exchange on a G protein.

A further experiment relates to Swiss Webster mice. Put plainly: Warm-water tail immersion assay, antagonism of morphine-induced antinociception. As to conditions: for Antagonism of morphine's antinociception, in words: single dose of 10 mg/kg s.c. in the presence of morphine (10 mg/kg), n = 6.

As a reminder, the Ki is the dissociation constant of the complex between target and ligand, obtained from inhibition or displacement. Lower therefore signals higher affinity. What is called EC50 is the concentration that produces a half-maximal response. Lower therefore signals an effect from little substance. As a reminder, the Emax is the size of the effect at its maximum, as opposed to the concentration needed. Turning to `O=C(Cc1ccns1)N[C@H]1CC[C@@]2(O)[C@H]3Cc4ccc(O)c5c4[C@@]2(CCN3CC2CC2)[C@H]1O5` [Compound 2, 17-Cyclopropylmethyl-3,14β-dihydroxy-4,5α-epoxy-6α-(5′-isothiazolylacetamido)-morphinan hydrochloride], the Ki on μ opioid receptor (MOR) turned out to be 0.55 ± 0.06 nM. Also, at δ opioid receptor (DOR), the Ki was determined as 13.9 ± 1.62 nM and the “Selectivity δ/μ” value is given as 25. At κ opioid receptor (KOR), the Ki was 1.49 ± 0.13 nM and the “Selectivity κ/μ” value is on record as 3. In addition, at MOR, the EC50 came to 4.62 ± 0.44 nM and the maximum response (Emax) is 18.2 ± 1.06%.

The molecule `O=C(N[C@H]1CC[C@@]2(O)[C@H]3Cc4ccc(O)c5c4[C@@]2(CCN3CC2CC2)[C@H]1O5)c1cncs1` [Compound 3, 17-Cyclopropylmethyl-3,14β-dihydroxy-4,5α-epoxy-6α-(5′-thiazolylcarboxamido)-morphinan hydrochloride] returned a Ki at μ opioid receptor (MOR) of 0.35 ± 0.02 nM. At δ opioid receptor (DOR), the Ki was 16.8 ± 3.88 nM and the “Selectivity δ/μ” value was 48. Besides, on κ opioid receptor (KOR), affinity was put at a Ki of 0.97 ± 0.11 nM and the “Selectivity κ/μ” value is given as 3. Besides, at MOR, the EC50 is 2.77 ± 0.51 nM and the Emax is 15.9 ± 1.84%.

On μ opioid receptor (MOR), `O=C(Cc1cncs1)N[C@H]1CC[C@@]2(O)[C@H]3Cc4ccc(O)c5c4[C@@]2(CCN3CC2CC2)[C@H]1O5` [Compound 4, 17-Cyclopropylmethyl-3,14β-dihydroxy-4,5α-epoxy-6α-(5′-thiazolylacetamido)-morphinan hydrochloride] registered a Ki of 0.57 ± 0.02 nM. Moreover, on δ opioid receptor (DOR), the affinity, expressed as Ki, was 8.5 ± 0.56 nM and the “Selectivity δ/μ” value amounted to 15. At κ opioid receptor (KOR), the Ki is 2.08 ± 0.39 nM and the “Selectivity κ/μ” value is reported as 4. At MOR, the EC50 amounted to 5.87 ± 1.26 nM and the Emax was found to be 17 ± 0.89%.

The molecule `O=C(CCc1cncs1)N[C@H]1CC[C@@]2(O)[C@H]3Cc4ccc(O)c5c4[C@@]2(CCN3CC2CC2)[C@H]1O5` [Compound 5, 17-Cyclopropylmethyl-3,14β-dihydroxy-4,5α-epoxy-6α-[(3′-(thiazolyl-5′′-yl)propan-amido]morphinan hydrochloride] gave a Ki at μ opioid receptor (MOR) of 0.71 ± 0.08 nM. At δ opioid receptor (DOR), the Ki came out at 11.6 ± 1.24 nM and the “Selectivity δ/μ” value is 16. For the same molecule, on κ opioid receptor (KOR), the Ki turned out to be 2.04 ± 0.38 nM and the “Selectivity κ/μ” value is reported as 3. In addition, at MOR, a half-maximal effect (EC50) was put at 2.76 ± 0.58 nM and the Emax was determined as 10.7 ± 1.02%.

In the case of `O=C(Cc1nccs1)N[C@H]1CC[C@@]2(O)[C@H]3Cc4ccc(O)c5c4[C@@]2(CCN3CC2CC2)[C@H]1O5` [Compound 7, 17-Cyclopropylmethyl-3,14β-dihydroxy-4,5α-epoxy-6α-(2′-thiazolylacetamido)-morphinan hydrochloride], on μ opioid receptor (MOR), the affinity corresponds to a Ki of 0.65 ± 0.05 nM. For the same molecule, on δ opioid receptor (DOR), the Ki stood at 1.3 ± 0.08 nM and the “Selectivity δ/μ” value was determined as 2. Moreover, at κ opioid receptor (KOR), the Ki came out at 2.26 ± 0.5 nM and the “Selectivity κ/μ” value was 3. Moreover, on MOR, the EC50 was determined as 3.87 ± 1.29 nM and the Emax is 10.2 ± 0.61%. Besides, in the experiment on Swiss Webster mice, the “Antagonism of morphine's antinociception, in words” value (“Antagonism” below) is “significantly antagonized”.

On μ opioid receptor (MOR), `O=C(CCc1nccs1)N[C@H]1CC[C@@]2(O)[C@H]3Cc4ccc(O)c5c4[C@@]2(CCN3CC2CC2)[C@H]1O5` [Compound 8, 17-Cyclopropylmethyl-3,14β-dihydroxy-4,5α-epoxy-6α-[(3′-(thiazolyl-2′′-yl)propan-amido]morphinan hydrochloride] had an inhibitory constant (Ki) of 0.45 ± 0.06 nM. On δ opioid receptor (DOR), the affinity corresponds to a Ki of 1.18 ± 0.06 nM and the “Selectivity δ/μ” value amounted to 3. Besides, on κ opioid receptor (KOR), the affinity, expressed as Ki, was 2 ± 0.42 nM and the “Selectivity κ/μ” value is 4. At MOR, it took 3.4 ± 0.6 nM to reach a half-maximal effect (EC50) and the Emax was 13.4 ± 0.41%. In addition, in the experiment on Swiss Webster mice, the “Antagonism” value is “significantly antagonized”.

On μ opioid receptor (MOR), `O=C(Cc1ccns1)N[C@@H]1CC[C@@]2(O)[C@H]3Cc4ccc(O)c5c4[C@@]2(CCN3CC2CC2)[C@H]1O5` [Compound 10, 17-Cyclopropylmethyl-3,14β-dihydroxy-4,5α-epoxy-6β-(5′-isothiazolylacetamido)-morphinan hydrochloride] displayed a Ki of 0.59 ± 0.09 nM. On δ opioid receptor (DOR), affinity was put at a Ki of 34 ± 4.18 nM and the “Selectivity δ/μ” value was determined as 58. Moreover, on κ opioid receptor (KOR), the affinity corresponds to a Ki of 1.14 ± 0.05 nM and the “Selectivity κ/μ” value is 2. Also, on MOR, the EC50 stood at 1.16 ± 0.15 nM and the Emax worked out at 9.32 ± 0.67%. In addition, the “AD50 (95% CL) for counteracting morphine-induced antinociception” value in the experiment with Swiss Webster mice (mice, s.c., given 5 min before morphine) is reported as 13.12 (2.34–73.39) mg/kg. Further, in the experiment with Swiss Webster mice, the “Antagonism” value is listed as “significantly antagonized”.

With `O=C(N[C@@H]1CC[C@@]2(O)[C@H]3Cc4ccc(O)c5c4[C@@]2(CCN3CC2CC2)[C@H]1O5)c1cncs1` [Compound 11, 17-Cyclopropylmethyl-3,14β-dihydroxy-4,5α-epoxy-6β-(5′-thiazolylcarboxamido)-morphinan hydrochloride], the Ki on μ opioid receptor (MOR) amounted to 0.53 ± 0.04 nM. In addition, at δ opioid receptor (DOR), the Ki amounted to 77.9 ± 16.1 nM and the “Selectivity δ/μ” value is on record as 147. In addition, at κ opioid receptor (KOR), the Ki turned out to be 1.41 ± 0.24 nM and the “Selectivity κ/μ” value is recorded as 3. Moreover, at MOR, the response was half-maximal at 1.58 ± 0.44 nM (EC50) and the Emax came out at 13.7 ± 1.32%. Besides, in the experiment with Swiss Webster mice, the “Antagonism” value is “significantly antagonized”.

`O=C(Cc1cncs1)N[C@@H]1CC[C@@]2(O)[C@H]3Cc4ccc(O)c5c4[C@@]2(CCN3CC2CC2)[C@H]1O5` [Compound 12, 17-Cyclopropylmethyl-3,14β-dihydroxy-4,5α-epoxy-6β-(5′-thiazolylacetamido)-morphinan hydrochloride] displayed a Ki at μ opioid receptor (MOR) of 0.39 ± 0.04 nM. Also, at δ opioid receptor (DOR), the Ki came to 17.5 ± 1.91 nM and the “Selectivity δ/μ” value was 44. Besides, on κ opioid receptor (KOR), the affinity, expressed as Ki, was 0.89 ± 0.05 nM and the “Selectivity κ/μ” value was 2. For the same molecule, at MOR, the response was half-maximal at 1.24 ± 0.25 nM (EC50) and the Emax was 13 ± 0.76%.

`O=C(CCc1cncs1)N[C@@H]1CC[C@@]2(O)[C@H]3Cc4ccc(O)c5c4[C@@]2(CCN3CC2CC2)[C@H]1O5` [Compound 13, 17-Cyclopropylmethyl-3,14β-dihydroxy-4,5α-epoxy-6β-[(3′-(thiazolyl-5′′-yl)propan-amido]morphinan hydrochloride] registered a Ki at μ opioid receptor (MOR) of 0.49 ± 0.07 nM. On δ opioid receptor (DOR), the Ki was 31.5 ± 2.78 nM and the “Selectivity δ/μ” value turned out to be 65. Besides, at κ opioid receptor (KOR), the Ki came to 1.2 ± 0.25 nM and the “Selectivity κ/μ” value was 2. Further, on MOR, the EC50 was 1.39 ± 0.36 nM and the Emax was 10.5 ± 0.92%.

`O=C(Cc1nccs1)N[C@@H]1CC[C@@]2(O)[C@H]3Cc4ccc(O)c5c4[C@@]2(CCN3CC2CC2)[C@H]1O5` [Compound 15, 17-Cyclopropylmethyl-3,14β-dihydroxy-4,5α-epoxy-6β-(2′-thiazolylacetamido)-morphinan hydrochloride]: on μ opioid receptor (MOR), the affinity, expressed as Ki, was 0.35 ± 0.04 nM. Also, on δ opioid receptor (DOR), the affinity corresponds to a Ki of 26.4 ± 2.65 nM and the “Selectivity δ/μ” value was determined as 76. Also, at κ opioid receptor (KOR), affinity was put at a Ki of 1.89 ± 0.77 nM and the “Selectivity κ/μ” value stood at 5. In addition, at MOR, the response was half-maximal at 0.78 ± 0.18 nM (EC50) and the Emax turned out to be 11 ± 0.43%.

For `O=C(CCc1nccs1)N[C@@H]1CC[C@@]2(O)[C@H]3Cc4ccc(O)c5c4[C@@]2(CCN3CC2CC2)[C@H]1O5` [Compound 16, 17-Cyclopropylmethyl-3,14β-dihydroxy-4,5α-epoxy-6β-[(3′-(thiazolyl-2′′-yl)propan-amido]morphinan hydrochloride], at μ opioid receptor (MOR), the Ki was 0.35 ± 0.03 nM. At δ opioid receptor (DOR), the Ki is 18.8 ± 3.26 nM and the “Selectivity δ/μ” value was determined as 54. Besides, on κ opioid receptor (KOR), the affinity corresponds to a Ki of 0.67 ± 0.08 nM and the “Selectivity κ/μ” value was determined as 2. At MOR, the EC50 was determined as 1.75 ± 0.46 nM and the Emax came out at 12.1 ± 0.67%.
